Read-outs that look alike come from different tables or passages of the source.
Target: T1, TGFβ R1 (Homo sapiens, UniProt P36897)
T1 sequence (P36897 34-503): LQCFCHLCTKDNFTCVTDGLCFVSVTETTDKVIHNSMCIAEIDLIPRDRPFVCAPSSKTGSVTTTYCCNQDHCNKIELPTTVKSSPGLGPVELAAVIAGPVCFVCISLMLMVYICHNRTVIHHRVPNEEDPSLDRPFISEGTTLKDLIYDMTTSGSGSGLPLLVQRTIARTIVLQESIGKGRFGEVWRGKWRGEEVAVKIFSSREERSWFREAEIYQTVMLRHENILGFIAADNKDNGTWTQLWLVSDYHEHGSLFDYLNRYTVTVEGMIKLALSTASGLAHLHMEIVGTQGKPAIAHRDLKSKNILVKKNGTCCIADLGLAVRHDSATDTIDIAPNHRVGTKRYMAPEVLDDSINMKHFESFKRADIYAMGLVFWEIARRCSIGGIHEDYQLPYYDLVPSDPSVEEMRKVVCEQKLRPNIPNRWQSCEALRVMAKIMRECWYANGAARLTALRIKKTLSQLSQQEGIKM
Test: TGFβ R1 autophosphorylation protocol (33P-ATP, phosphocellulose filter plate)
Format: biochemical
Conditions: 10 uM ATP, read-out: IC50 for Kinase Inhibition
Outline: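 Incorporation of 33P from γ-33P-ATP (10 uM ATP final) into the kinase itself (170 nM) measured by phosphocellulose capture and scintillation counting. Incubation 20 min at room temperature in 20 mM MOPS pH 7 with […]; final DMSO ≤1%.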

[1] = 170 nM TGFβ R1, 20 minutes at room temperature
[2] = 170 nM TGFβ R1, room temperature 20 minutes

Row | SMILES | IC50 [1] | IC50 [2]
1 | O=C(NCCN1CCCC1)c1cnccc1Nc1nc(-c2cc(Cl)ccc2F)ncc1N1CCCC1 [Compound 26, 4-[2-(5-Chloro-2-fluoro-phenyl)-5-pyrrolidin-1-yl-pyrimidin-4-ylamino]-N-(2-pyrrolidin-1-yl-ethyl)-nicotinamide] | 200 nM | –
2 | CC(=O)CNC(=O)c1cnccc1Nc1nc(-c2cc(Cl)ccc2F)ncc1C(C)C [Compound 169, 4-[2-(5-Chloro-2-fluoro-phenyl)-5-isopropyl-pyrimidin-4-ylamino]-N-(2-oxo-propyl)-nicatinamide] | – | 3 nM
3 | CC(C)c1cnc(-c2cc(Cl)ccc2F)nc1Nc1ccncc1C(=O)N[C@H]1CCC[C@@H]1O [Compound 247, 4-[2-(5-Chloro-2-fluoro-phenyl)-5-isopropyl-pyrimidin-4-ylamino]-N-(2-hydroxy-cyclopentyl)-nicotinamide] | – | 40 nM
4 | CNC(=O)[C@H]1CCCN1CCCNC(=O)c1cnccc1Nc1nc(-c2cc(Cl)ccc2F)ncc1C(C)C [Compound 182, 4-[2-(5-Chloro-2-fluoro-phenyl)-5-isopropyl-pyrimidin-4-ylamino]-N-[3-(2-methylcarbamoyl-pyrrolidin-1-yl)-propyl]-nicotinamide] | – | 11 nM
5 | COc1cnc(-c2cc(Cl)ccc2F)nc1Nc1ccncc1C(=O)NCCCN [Compound 100, N-(3-Amino-propyl)-4-[2-(5-chloro-2-fluoro-phenyl)-5-methoxy-pyrimidin-4-ylamino]-nicotinamide] | 30 nM | –
6 | COc1cnc(-c2cc(Cl)ccc2F)nc1Nc1ccncc1C(=O)NCCNC(=O)COC1O[C@H](CO)[C@@H](O)[C@H](O)[C@H]1O (some centres unmarked) [Compound 145, 4-[2-(5-Chloro-2-fluoro-phenyl)-5-methoxy-pyrimidin-4-ylamino]-N-{2-[2-(3,4,5-trihydroxy-6-hydroxymethyl-tetrahydro-pyran-2-yloxy)-acetylamino]-ethyl)-nicotinamide] | 53 nM | –
7 | CC(C)c1cnc(-c2cc(Cl)ccc2F)nc1Nc1ccncc1C(=O)NC[C@H](C)OP(=O)(O)O [Compound 234, Phosphoric acid mono-[2-{[4-[2-(5-chloro-2-fluoro-phenyl}-5-isopropyl-pyrimidin-4-ylamino]-pyridine-3-carbony}-amino)-1-methyl-ethyl] ester] | – | 178 nM
8 | O=C(NC1CC1)c1cnccc1Nc1nc(-c2cc(Cl)ccc2F)ncc1Cl [Compound 92, 4-[5-Chloro-2-(5-chloro-2-fluoro-phenyl)-pyrimidin-4-ylamino]-N-cyclopropyl-nicotinamide] | 130 nM | –
9 | COc1cnc(-c2cc(Cl)ccc2F)nc1Nc1ccncc1C(=O)NCC(C)C(=O)O (centres unmarked) [Compound 56, 3-({4-[2-(5-Chloro-2-fluoro-phenyl)-5-methoxy-pyrimidin-4-ylamino)-pyridine-3-carbonyl)-amino)-2-methyl-propionic acid] | 1200 nM | –
10 | CC(C)c1cnc(-c2cc(Cl)ccc2F)nc1Nc1ccncc1C(=O)NC[C@H](C)OC(=O)[C@@H](N)C(C)C [Compound 206, 2-Amino-3-methyl-butyric acid 2-({4-[2-(5-chloro-2-fluoro-phenyl)-5-isopropyl-pyrimidin-4-ylamino]-pyridine-3-carbonyl}-amino)-1-methyl-ethyl ester] | – | 72 nM
11 | CC(C)c1cnc(-c2cc(Cl)ccc2F)nc1Nc1ccncc1C(=O)NC1C[C@@H]1CO (stereo in doubt) [Compound 215, 4-[2-(5-Chloro-2-fluoro-phenyl)-5-isopropyl-pyrimidin-4-ylamino]-N-(2-hydroxymethyl-cyclopropyl)-nicotinamide] | – | 5 nM
12 | CN(C)c1cnc(-c2cc(Cl)ccc2F)nc1Nc1ccncc1C(=O)NCCNCCO [Compound 50] | 20 nM | –
13 | COC[C@@H]1OC(CCNCCCNC(=O)c2cnccc2Nc2nc(-c3cc(Cl)ccc3F)ncc2OC)[C@@H](OC)[C@H](OC)[C@H]1OC (some centres unmarked) [Compound 125, 4-[2-(5-Chloro-2-fluoro-phenyl)-5-methoxy-pyrimidin-4-ylamino]-N-{3-[2-(3,4,5-trimethoxy-6-methoxymethyl-tetrahydro-pyran-2-yl)-ethylamino]-propyl}-nicotinamide] | 32 nM | –
14 | COc1cnc(-c2cc(Cl)ccc2F)nc1Nc1ccncc1C(=O)NCCNCC[C@@H]1OC[C@@H](O)[C@H](O)[C@H]1O [Compound 170, 4-[2-(5-Chloro-2-fluoro-phenyl)-5-methoxy-pyrimidin-4-ylamino]-N-{2-[2-(3,4,5-trihydroxy-tetrahydro-pyran-2-yl)-ethylamino]-ethyl}-nicotinamide] | – | 6 nM
